Molecules are shown by their SMILES. Bounds are passed on as bounds.

The experiment has as its target Peptide deformylase (Escherichia coli) (UniProt P0A6K3). The experiment can be described thus: Inhibition against Escherichia coli peptide deformylase.

Peptide deformylase (Escherichia coli), sequence (P0A6K3 whole entry, looked up): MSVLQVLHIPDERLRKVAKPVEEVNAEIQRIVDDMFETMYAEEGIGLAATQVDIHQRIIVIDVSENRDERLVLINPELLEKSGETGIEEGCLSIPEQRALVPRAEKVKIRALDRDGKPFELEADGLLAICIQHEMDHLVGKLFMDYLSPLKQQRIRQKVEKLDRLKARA

As for `CCSC[C@H](CN(O)C=O)C(=O)N[C@H](C(=O)N(C)C)C(C)(C)C` [(S)-2-[(R)-2-Ethylsulfanylmethyl-3-(formyl-hydroxy-amino)-propionylamino]-3,3,N,N-tetramethyl-butyramide], the 50% inhibitory concentration (IC50) (as a rule, the concentration that inhibits the measured activity by half) is 20 nM.

Turning to `C=CCC[C@H](CN(O)C=O)C(=O)N[C@H](C(=O)N(C)C)C(C)(C)C` [(R)-2-[(Formyl-hydroxy-amino)-methyl]-hex-5-enoic acid ((S)-1-dimethylcarbamoyl-2,2-dimethyl-propyl)-amide], the IC50 came to 20 nM.

Turning to `CCCCCCCC[C@H](CN(O)C=O)C(=O)N[C@H](C(=O)N(C)C)C(C)(C)C` [(R)-2-[(Formyl-hydroxy-amino)-methyl]-decanoic acid [1-((S)-dimethyl-carbamoyl)-2,2-dimethyl-propyl]-amide], the IC50 turned out to be 50 nM.

Molecule `CC[C@H](CN(O)C=O)C(=O)N[C@H](C(=O)N(C)C)C(C)(C)C` [(S)-2-{(R)-2-[(Formyl-hydroxy-amino)-methyl]-butyrylamino}-3,3,N,N-tetramethyl-butyramide] gave an IC50 of 70 nM.

As to `CN(C)C(=O)[C@@H](NC(=O)[C@H](CC1CCCCC1)CN(O)C=O)C(C)(C)C` [(S)-2-[(R)-2-Cyclohexylmethyl-3-(formyl-hydroxy-amino)-propionylamino]-3,3,N,N-tetramethyl-butyramide], 6 nM corresponded to half-maximal inhibition (IC50).

In turn, `CN(C)C(=O)[C@@H](NC(=O)[C@@H](CN(O)C=O)C1CCCC1)C(C)(C)C` [(S)-2-[(R)-2-Cyclopentyl-3-(formyl-hydroxy-amino)-propionylamino]-3,3,N,N-tetramethyl-butyramide] yielded a half-inhibitory concentration (IC50) of 20 nM.

Consider `C[C@H](CN(O)C=O)C(=O)N[C@H](C(=O)N(C)C)C(C)(C)C` [(S)-2-[(R)-3-(Formyl-hydroxy-amino)-2-methyl-propionylamino]-3,3,N,N-tetramethyl-butyramide], for which the IC50 is 100 nM.

Turning to `CCC[C@H](CN(O)C=O)C(=O)N[C@H](C(=O)N(C)C)C(C)(C)C` [(R)-2-[(Formyl-hydroxy-amino)-methyl]-pentanoic acid ((S)-1-dimethylcarbamoyl-2,2-dimethyl-propyl)-amide], 50 nM corresponded to half-maximal inhibition (IC50).

Consider `CN(C)C(=O)[C@@H](NC(=O)[C@@H](CN(O)C=O)CN1CCCCC1)C(C)(C)C` [(S)-2-{(R)-2-[(Formyl-hydroxy-amino)-methyl]-3-piperidin-1-yl-propionylamino}-3,3,N,N-tetramethyl-butyramide], for which the half-inhibitory concentration (IC50) was > 1000 nM.

`CCCCCC[C@H](CN(O)C=O)C(=O)N[C@H](C(=O)N(C)C)C(C)(C)C` [(R)-2-[(Formyl-hydroxy-amino)-methyl]-octanoic acid ((S)-1-dimethylcarbamoyl-2,2-dimethyl-propyl)-amide] returned an IC50 of 30 nM.

With `CCCC[C@@H](C(=O)N[C@H](C(=O)N(C)C)C(C)(C)C)C(C)N(O)C=O` (stereo partly drawn) [(R)-2-[1-(Formyl-hydroxy-amino)-ethyl]-hexanoic acid ((S)-1-dimethylcarbamoyl-2,2-dimethyl-propyl)-amide], the IC50 was found to be 600 nM.

For the molecule `CC(C)[C@H](CN(O)C=O)C(=O)N[C@H](C(=O)N(C)C)C(C)(C)C` [(R)-N-((S)-1-Dimethylcarbamoyl-2,2-dimethyl-propyl)-2-[(formyl-hydroxy-amino)-methyl]-3-methyl-butyramide], the 50% inhibitory concentration (IC50) is 50 nM.

Regarding `C=CC[C@H](CN(O)C=O)C(=O)N[C@H](C(=O)N(C)C)C(C)(C)C` [(R)-2-[(Formyl-hydroxy-amino)-methyl]-pent-4-enoic acid ((S)-1-dimethylcarbamoyl-2,2-dimethyl-propyl)-amide], the IC50 was 30 nM.

`CN(C)C(=O)[C@@H](NC(=O)[C@H](Cc1ccccc1)CN(O)C=O)C(C)(C)C` [(S)-2-[(R)-2-Benzyl-3-(formyl-hydroxy-amino)-propionylamino]-3,3,N,N-tetramethyl-butyramide]: it took 20 nM to reach half-maximal inhibition (IC50).

Take `CC(C)C[C@H](CN(O)C=O)C(=O)N[C@H](C(=O)N(C)C)C(C)(C)C` [(R)-2-[(Formyl-hydroxy-amino)-methyl]-4-methyl-pentanoic acid ((S)-1-dimethylcarbamoyl-2,2-dimethyl-propyl)-amide]: the IC50 turned out to be 10 nM.

Regarding `CC#CC[C@H](CN(O)C=O)C(=O)N[C@H](C(=O)N(C)C)C(C)(C)C` [(R)-2-[(Formyl-hydroxy-amino)-methyl]-hex-4-ynoic acid ((S)-1-dimethylcarbamoyl-2,2-dimethyl-propyl)-amide], the IC50 was 30 nM.

In turn, `CCCCCCC[C@H](CN(O)C=O)C(=O)N[C@H](C(=O)N(C)C)C(C)(C)C` [(R)-2-[(Formyl-hydroxy-amino)-methyl]-nonanoic acid ((S)-1-dimethylcarbamoyl-2,2-dimethyl-propyl)-amide] returned a 50% inhibitory concentration (IC50) of 40 nM.

`CC(C)CC[C@H](CN(O)C=O)C(=O)N[C@H](C(=O)N(C)C)C(C)(C)C` [(R)-2-[(Formyl-hydroxy-amino)-methyl]-5-methyl-hexanoic acid ((S)-1-dimethylcarbamoyl-2,2-dimethyl-propyl)-amide]: the IC50 is 20 nM.

`CCCCC[C@H](CN(O)C=O)C(=O)N[C@H](C(=O)N(C)C)C(C)(C)C` [(R)-2-[(Formyl-hydroxy-amino)-methyl]-heptanoic acid ((S)-1-dimethylcarbamoyl-2,2-dimethyl-propyl)-amide] gave an IC50 of 10 nM.

Values taken from BindingDB's records for doi:10.1016/s0960-894x(03)00532-8 (British Biotech Pharmaceuticals, 2003).
